Source: patent publication US10227591B2, “Modulation of human cytomegalovirus replication by micro-RNA 132 (miR132), micro-RNA 145 (miR145) and micro-RNA 212 (miR212)” (priority 2009, dated 2019)

Tests used:
MeCP2 = MeCP2 protein Western blot after transfection with miR132 or miR212 LNA; format: cell-based, Human; details: HEL cells transfected with 500 pmol LNA; nuclear enriched extracts; versus scramble LNA
Description: In order to assess the role of miR132 and miR212 in virus replication, miR132 and miR212 were inhibited using antisense locked nucleic acid (LNA) oligonucleotides targeting miR132 or miR212 Inhibition of miR132 and/or miR212 in this way counteracts the increase in miR132 or miR212 expression that occurs during HCMV infection. To test the efficacy of the LNAs, HEL cells were transfected with 500 pmol of scramble, miR132, or miR212 specific locked nucleic acid (Exiqon) to inhibit miRNA function. Nuclear enriched extracts were prepared, and protein levels were determined by Western blot.

HCMV [1] = experiment: HCMV virus release by plaque assay after antisense miR132 LNA transfection; format: cell-based; details: for viral replication (virus release, viral proteins IE2, pp65, gB55): summary statement in the description, transfection of cells
Method: (§1) To determine the role of miR132 on HCMV replication, HEL cells were transfected with antisense miR132 LNA, and were infected with HCMV. The amount of virus released from infected cells was quantitated by plaque assay, and viral protein accumulation was analyzed by Western blot of protein lysates from infected cells. […] Taken together with the previous data, this experiment confirms that miR132 is necessary for efficient HCMV replication, and that HCMV replication can be effectively attenuated by inhibition of miR132.

[2] = system: HCMV proteins IE2, pp65, gB55; experiment: HCMV viral protein accumulation by Western blot after antisense miR132 LNA transfection; format: cell-based; details: HEL cells transfected, infected with HCMV; versus control LNA
Method: as §1

IRS-1 = IRS-1 protein Western blot after transfection with miR145 mimic; format: cell-based, Human; details: HEL fibroblasts; 48, 72 and 96 hours post transfection; compared to control miRNA transfected cells
Method: This experiment was performed to determine whether a miR145 mimic targets Insulin Receptor Substrate-1 (IRS-1) mRNA, which is a target of miR145, in HEL fibroblasts. HEL fibroblasts were transfected with either a control miRNA (ct) or miR145 mimic (145) (Dharmacon). Cell pellets were collected at 24, 48, 72 and 96 hours post transfection and lysed. Western blot was performed using an anti IRS-1 antibody (Upstate Biothechnology). Actin is shown as a loading control. […] This downregulation is not observed in the cells transfected with a control miRNA, or the mock-transfected cells.

[3] = system: HCMV proteins IE2, pp65, gB55, IE1; experiment: HCMV viral protein expression by western blot after miR145 mimic transfection; format: cell-based; details: HEL fibroblasts, HCMV MOI=1, 24-144 hpi; compared to control miRNA
Method: These experiments were performed to establish the role of miR145 on HCMV protein expression. HEL fibroblasts were transfected with either a control miRNA or miR145 mimic (Dharmacon). The cells were infected with HCMV (MOI=1) 24 hours after transfection. Cell pellets were collected at 24, 48, 72, 96, 120 and 144 hpi, lysed and examined for viral protein expression by western blot.

HCMV [4] = experiment: HCMV viral titers in supernatants by plaque assay after miR145 mimic transfection; format: cell-based
Method: This experiment was performed to determine whether altered regulation of miR145 following viral infection affects viral replication. HEL fibroblasts were transfected with either a control (ct) miRNA or a miR145 mimic (145) (Dharmacon). The cells were infected with HCMV (MOI=1) 24 hours after transfection. Supernatants were collected at 24, 48, 72, 96, 120 and 144 hpi and examined for viral titers by plaque assay. […] A 10-fold difference can be observed from 72 to 96 hpi. At 144 hpi, viral titers are similar in the control and miR145 mimic transfected cells. […] This is consistent with the hypothesis that downregulation of miR145 contributes to HCMV pathogenesis by enhancing its replication.

Row | Substance | MeCP2 protein levels (MeCP2) | viral replication (virus release, viral proteins IE2, pp65, gB55) (HCMV [1]) | expression of viral protein IE2 [2] | expression of viral protein gB55 [2] | expression of viral protein pp65 [2] | decrease in virus replication (HCMV [1]; HEL cells transfected, then infected with HCMV, virus release and viral protein expression) | IRS-1 protein level (IRS-1) | IE1 levels [3] | levels of the Early (E) protein pp65 [3] | levels of the Immediate Early (IE) 2 protein [3] | levels of the Late (L) protein gB55 [3] | viral titers in the supernatants (HCMV [4]; HEL fibroblasts transfected 24 h before HCMV infection (MOI=1), compared to control miRNA) | viral titers versus control (HCMV [4]; HEL fibroblasts, HCMV MOI=1, at 144 hpi) | difference in viral titers (HCMV [4]; HEL fibroblasts, HCMV MOI=1, from 72 to 96 hpi, versus control miRNA) | reduction in viral titers (HCMV [4]; fibroblast cells transfected, subsequently infected with HCMV)
1 | miR212 LNA: miR212 specific antisense locked nucleic acid (Exiqon); exemplary sequence 5' GGCCGTGACTGGAGACTGTTA 3' (SEQ ID NO:14) (LNA-modified antisense, pattern not given here) | modest increase | attenuates viral replication | – | – | – | – | – | – | – | – | – | – | – | – | –
2 | miR132 LNA: miR132 specific antisense locked nucleic acid (Exiqon); exemplary sequence 5' CGACCATGGCTGTAGACTGTTA 3' (SEQ ID NO:13) (antisense CGACCATGGCTGTAGACTGTTA; LNA-modified antisense, pattern not given here) | modest increase | attenuates viral replication | reduced | reduced | reduced | 3 fold | – | – | – | – | – | – | – | – | –
3 | miR145 mimic: miR145 mimic (Dharmacon) transfected into HEL fibroblasts; mimics mature miR145 (SEQ ID NO:2) (GUCCAGUUUUCCCAGGAAUCCCU; mimic duplex, passenger strand not given here; listed as Homo sapiens) | – | – | – | – | – | – | Downregulation | Increased IE1 levels | Decreased levels | Decreased levels | Decreased levels | decreased viral titers | similar | 10 fold | > 1 log
